What was measured:
[1] = Stability study of SC12 under storage conditions (HPLC); format: physicochemical
human PBMCs = assay: IL-6 secretion in human PBMCs, two batches of Compound A and SC12; format: cell-based; settings: 5 months storage in DMSO at 4° C.
Experimental: PBMCs were purified from two donors and plated into 96 well plates at 2×10^5 cells/well in RPMI media including human 2% heat inactivated AB serum, glutamine, Pen-strep and R-mercapto-ethanol. […] The conditioned media was removed for ELISA analyses for IL-6, and the EC50 value determined for each compound and each batch.
All compounds were tested in four concentrations (10-1-0, 1-0.01 micromolar).
Concentrations of IL-6 were determined by ELISA from R&D Systems using the Microsoft Excel software. The results were analyzed in Graph Pad Prism in order to prepare dose-response curves, and for determination of EC50 values.

[2] = Plasma stability in human plasma (second experiment); settings: up to 120 min
Experimental: Second experiment: Test compounds (5 mM in DMSO) were diluted at the final concentration of 250 μM with ACN-MeOH 1:1.
Human plasma (1.180 ml) was spiked with 20 μl of 250 μM solution of the compound (4.16 μM final concentration) and aliquots of 50 μl volume were taken at 0, 15, 30, 60, 120 min and 5 hrs, and immediately quenched with 200 μl of a solution of Verapamil 250 ng/ml (internal standard, I.S.) in ACN:MeOH 95:5. Samples were then centrifuged for 20 min at 3000 rpm at 10° C. and analyzed as reported below. […] The supernatant fractions were analyzed by LC/MS/MS. Zero-time incubations were used as 100% values.
Stability was calculated as percentage remaining of the area ratio compound/I.S. at each time point vs. area ratio compound/I.S. at time 0 min.

[3] = test system: HLA-DR+/CD11c+/CD123- mDCs; assay: FACS analysis of myeloid DC activation in whole blood; format: cell-based, human; settings: 24 hours; 0.1 and 0.5 uM; three donors
Experimental: The FACS analysis for donor 1 and donor 2 was made on another day than donor 3. The compound concentrations were as follows:
The FACS analysis was used to identify whether the test compounds could induce activation of B cells, and two different subsets of dendritic cells, namely the myeloid CD11c+/CD123− DCs and the plasmacytoid CD11c−/CD123+ DCs. The following markers were studied to identify the activation status of the different subsets:
The FACS staining was performed according to the manufacturer's instructions. Lysis of red blood cells was performed before FACS staining in order to minimize auto-florescence. To include as many B cells and DCs in the study as possible the FACS analyses were performed on 500,000 cells in total for each staining. A P1 gate was set only to include relevant cells on FSC vs. SSC (see FIGS. 12-15). The results of the individual analysis were present as Mean Fluorescence Intensity
The analysis of myeloid DCs was based on HLA-DR+/CD11c+/CD123−cells, thus all analyzed cells was included in the HLA-DR+ (P3) gate and CD11c+/CD123− (Q4) gate (see gates in FIGS. 13-15).

[4] = Single dose intravenous toxicity study in rats; format: in vivo, Sprague Dawley rat
Experimental: An additional group, similarly composed, received the vehicle alone and acted as a control. […] Clinical signs were limited to piloerection and reduced activity, observed on the day of dosing.
In the main phase, 5 male and 5 female animals were dosed at 90 mg/kg and observed for a period of 14 days. A second group, similarly constituted, received the vehicle alone and acted as control. […] In addition, one male and one female dosed at 90 mg/kg were found dead on Day 2 of the study. Twitches, ataxia, piloerection, reduced activity and hunched posture were the major signs observed in animals before death. […] Piloerection was observed up to Day 3 of the study. A second group, similarly composed, was dosed at 80 mg/kg.

[5] = Intravenous pharmacokinetics in the mouse; settings: IV bolus 1 mg/kg; for Plasma concentration Mean ± S.D.: LLOQ: 5 ng/ml
Experimental: An IV bolus was administered into the caudal vein at a dose of 1 mg/kg in 5 ml. The compound weight was 2.08/10.04 ml. 24 mice were studied. Sampling was obtained by exsanguination under anesthesia, at 5, 15, 30, 60, 240, and 480 minutes, and at 24 hours. […] Animals were sacrificed using ethyl ether at the conclusion of the experiment.
Sample preparation: In a Sirocco filter plate, 100 microliters of plasma were added to 300 microliters of ACN/MeOH spiked with 5 microliters of IS (IV298 10 micrograms per ml) plus 10 microliters of 5% H3PO4. The plate was shaken for 10 minutes at 80 rpm and then filtered under vacuum for 5 minutes.
Analytical method: LC/MS/MS: Premiere XE, Eluent: water (A) MeOH (B) plus 0.1% HCOOH gradient. 15% B to 100% B from 0.1 to 0.5, then isocratic 100% B up to 1.5 minutes, flow 0.8 ml/min; Column Acquity UPLC BEH C18 1.7 microm 2.1×50 mm, injection volume of 5 microliters in a T column at 50° C. ESI positive, MRM, Extractor 5V; Capillary 3.5 kV; T source 115° C.; T desolv. 450° C.
Data analysis: Non-compartmental analysis WinNonlin 5.1; linear trapezoidal, uniform weight.

CYP2E1 = CYP2E1 (Homo sapiens (Human), UniProt P05181); assay: Fluorescent High Throughput P450 assay CYP2E1; format: in vitro ADME
Experimental: Inhibition of the P450 isoforms was measured in specific assays using specific substrates that become fluorescent upon CYP metabolism. Compounds, dissolved in ACN (acetonitrile) (CYP2E1, CYP2C8, CYP2B6, CYP3A5) or DMSO (all remaining isoforms), were tested in duplicate (n=2) in concentration-response curves (eight concentrations) in a 96-well plate containing incubation/NADPH regenerating buffer. Specific isoenzymes and substrates were added and incubated at 37° C. Reactions were terminated at different times, depending on the assays, and plates read on a Fluoroskan Ascent at the appropriate emission/excitation wavelengths. Concentration-response curves performed in duplicate for known inhibitors for each isoenzyme were tested in every assay as positive control.

[6] = test system: AY-27 rat bladder cancer cell-line; settings: in vivo
[7] = solid, RT and light, t = 20 days
[8] = solid, external T and light, t = 20 days
[9] = solution in CHCl3, RT and light, t = 0
[10] = solution in CHCl3, RT and light, t = 20 days

Sequence of CYP2E1 (P05181 whole entry, looked up): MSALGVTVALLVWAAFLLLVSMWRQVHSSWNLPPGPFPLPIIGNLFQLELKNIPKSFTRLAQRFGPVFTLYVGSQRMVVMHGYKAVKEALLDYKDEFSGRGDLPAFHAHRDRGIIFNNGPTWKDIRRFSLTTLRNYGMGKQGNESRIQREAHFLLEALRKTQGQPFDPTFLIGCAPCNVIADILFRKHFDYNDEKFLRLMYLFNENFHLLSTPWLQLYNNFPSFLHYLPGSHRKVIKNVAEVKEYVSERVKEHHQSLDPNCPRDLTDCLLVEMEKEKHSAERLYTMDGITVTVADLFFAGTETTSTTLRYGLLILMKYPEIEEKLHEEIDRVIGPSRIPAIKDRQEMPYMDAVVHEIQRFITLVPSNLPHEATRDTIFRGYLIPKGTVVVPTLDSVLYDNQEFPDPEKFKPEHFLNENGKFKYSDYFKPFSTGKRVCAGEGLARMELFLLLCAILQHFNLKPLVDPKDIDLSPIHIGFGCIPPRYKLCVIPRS

## CCCCCCCCCCCC(=O)OCC(COP(=O)(O)OCCNC(=O)c1ccc(Cn2c(=O)[nH]c3c(N)nc(OCCOC)nc32)cc1)OC(=O)CCCCCCCCCCC (stereo not shown) [SC12]
[1]; [7]
  HPLC % at RRT = 1 (main peak): RRT = 1: 87.8%
  HPLC % of impurity at RRT = 0.88: RRT = 0.88: 6.2%
  HPLC % of impurity at RRT = 1.21: RRT = 1.21: 4.8%
[1]; [8]
  HPLC % at RRT = 1 (main peak): RRT = 1: 84.0%
  HPLC % of impurity at RRT = 0.88: RRT = 0.88: 6.6%
  HPLC % of impurity at RRT = 1.21: RRT = 1.21: 7.1%
[1]; [9]
  HPLC % at RRT = 1 (main peak): RRT = 1: 90.3%
  HPLC % of impurity at RRT = 0.46: RRT = 0.46: 5.7%
  HPLC % of impurity at RRT = 1.21: RRT = 1.21: 0.9%
[1]; [10]
  HPLC % at RRT = 1 (main peak): RRT = 1: 88.0%
  HPLC % of impurity at RRT = 0.88: RRT = 0.88: 6.2%
  HPLC % of impurity at RRT = 1.21: RRT = 1.21: 5.0%
Human PBMCs
  activity after storage (in words): have not lost activity
[2]
  stability classification: stable
[3]
  CCR7 expression in mDCs (MFI, in words): less potent stimulator of CCR7 expression
  CD80 expression in mDCs (MFI, in words): induced a noteworthy CD80 expression in all three donors
  CD86 expression in mDCs (MFI, in words): induces a weak CD86 expression in donor 2 and 3, but not in donor 1
[4]; 76 mg/kg i.v., preliminary phase
  mortality: No mortality occurred
[4]; 80 mg/kg i.v., main phase
  mortality and clinical signs: No mortality occurred and no clinical signs were recorded
[4]; 85 mg/kg i.v., preliminary phase
  clinical signs: Piloerection
[4]; 90 mg/kg i.v., main phase
  mortality and signs of toxicity: induced mortality or significant signs of toxicity
[4]; 90 mg/kg i.v., preliminary phase
  mortality: No mortality occurred
[4]; 100 mg/kg i.v., preliminary phase
  mortality: Both animals died at dosing
[4]; single intravenous administration, rat
  maximum tolerated dose: 80 mg/kg
[5]
  adverse behavioral effects: No adverse behavioral effects
[5]; plasma
  Cl: 77.7 mL/min/kg
  Clast: 6 ng/mL
  MRT: 32 min
  T ½: 130 min
  Tlast: 120 min
  Tmax: 5 min
  Vss: 2.5 L/kg
[5]; 240 min
  Plasma concentration Mean ± S.D.: <LLOQ
[5]; 480 min
  Plasma concentration Mean ± S.D.: <LLOQ
[5]; 1440 min
  Plasma concentration Mean ± S.D.: <LLOQ
CYP2E1
  inhibition of CYP2E1 (in words): moderate inhibition
[6]
  signs of toxicity (in words): No signs of toxicity

Source: US9180183B2, “Phospholipid drug analogs” (Telormedix SA, priority 2010, dated 2015)
